Data: US20260209226A1 (EmpathBio, Inc., priority 2023, published 2026)
Values joined by “and” are separate entries in the source; they are usually repeats but may differ in a detail not shown here. Equal entries are not always repeated. Where two headings read alike, the source gives them in different places.

Assays:
Type in all cases: cell-based
[1] = biological target: T1, Human Serotonin Transporter (SERT) (Homo sapiens, UniProt P31645); assay: Human Serotonin Transporter (SERT) Uptake Inhibition Assay ([3H]-Serotonin uptake in HEK cells); details: HEK cells expressing recombinant SERT, individual experiments separated by commas; for SERT UPTAKE INHIBITION (%) @1 uM: 1 uM test compound; for SERT UPTAKE INHIBITION (%) @100 uM: 100 uM test compound; for inhibition at 10 µM: HEK293, 10 uM test compound; for inhibition at 100 µM: HEK293, 100 uM test compound; for inhibition at 1 µM: HEK293, 1 uM test compound
T1 construct: expressed in transfected cells; host or cells: HEK cells
Procedure: Compound activity is assessed using an in vitro assay. Briefly, HEK cells expressing recombinant serotonin transporter (SERT) are plated at 50,000 cells/well on a 96 well plate pre-coated with Matrigel one day prior to the experiment. Culture medium (DMEM/FBS) is removed and 30 μl of assay buffer (Tris-HCl 50 mM, EDTA 4 mM, BDA 0.1%) with the desired concentration of test compound is added. The plate is incubated at 37° C. for 15 minutes. Assay buffer (30 μl) containing the same concentration of compound diluted in [^3H]-Serotonin uptake buffer (final concentration 10 nM) is added to each well and the plate is incubated at 37° C. for 5 minutes. The reaction mixture is removed, and the cells are washed with 100 μl ice-cold assay buffer twice. Lysis buffer (50 μl) is added to the cells followed by a 5 minute incubation with gentle shaking at room temperature. The lysate is transferred to a 96 well isoplate. Optiphase supermix (100 μl) is added to each well with complete mixing. Radioactivity is counted with Microbeta Counter and reported as counts per minute (CPM). Fluoxetine is used as a control to measure non-specific uptake and for data normalization. Percent inhibition of [^3H]-Serotonin uptake calculations: 100×(1−(CPMtest sample−CPMnon_specific uptake)/(CPMMAX−CPMMIN)) are summarized in Table 2. Subsequent experiments using the same assay were performed with select compounds with a greater range of concentrations (10 half-log dilutions from a top concentration of 100 μM), allowing for the determination of IC50s. IC50s were determined using the log(inhibitor) vs. normalized response—Variable slope model in GraphPad Prism 10.1.0 and are summarized in Table 3.

[2] = biological target: T2, Human Norepinephrine Transporter (NET) (Homo sapiens, UniProt P23975); assay: Human Norepinephrine Transporter (NET) Uptake Inhibition Assay ([3H]-Norepinephrine uptake in HEK cells); details: HEK cells expressing recombinant NET, individual experiments separated by commas
T2 construct: expressed in transfected cells; host or cells: HEK cells
Procedure: Compound activity is assessed using an in vitro assay. Briefly, HEK cells expressing recombinant Norepinephrine transporter (NET) are plated at 50,000 cells/well on a 96 well plate pre-coated with Matrigel one day prior to the experiment. Culture medium (DMEM/FBS) is removed and 30 μl of assay buffer (Tris-HCl 50 mM, EDTA 4 mM, BDA 0.1%) with the desired concentration of test compound is added. The plate is incubated at 37° C. for 15 minutes. Assay buffer (30 μl) containing the same concentration of compound diluted in [^3H]-Norepinephrine uptake buffer (final concentration 20 nM) is added to each well and the plate is incubated at 37° C. for 5 minutes. The reaction mixture is removed, and the cells are washed with 100 μl ice-cold assay buffer twice. Lysis buffer (50 μl) is added to the cells followed by a 5 minute incubation with gentle shaking at room temperature. The lysate is transferred to a 96 well isoplate. Optiphase supermix (100 μl) is added to each well with complete mixing. Radioactivity is counted with Microbeta Counter and reported as CPM. Desiparmine is used as a control to measure non-specific uptake and for data normalization. Percent inhibition of [^3H]-Norepinephrine uptake calculations: 100×(1−CPMtest sample−CPMnon_specific uptake)/(CPMMAX−CPMMIN)). Test compounds were screened at 10 concentrations at half-log dilutions from a top concentration of 100 μM. IC50s were determined using the log(inhibitor) vs. normalized response—Variable slope model in GraphPad Prism 10.1.0 and are summarized in Table 3.

[3] = biological target: T3, Human Dopamine Transporter (DAT) (Homo sapiens, UniProt Q01959); assay: Human Dopamine Transporter (DAT) Uptake Inhibition Assay ([3H]-Dihydroxyphenylethylamine uptake in HEK cells); details: HEK cells expressing recombinant DAT, individual experiments separated by commas
T3 construct: expressed in transfected cells; host or cells: HEK cells
Procedure: Compound activity is assessed using an in vitro assay. Briefly, HEK cells expressing recombinant dopamine transporter (DAT) are plated at 50,000 cells/well on a 96 well plate pre-coated with Matrigel one day prior to the experiment. Culture medium (DMEM/FBS) is removed and 30 μl of assay buffer (Tris-HCl 50 mM, EDTA 4 mM, BDA 0.1%) with the desired concentration of test compound is added. The plate is incubated at 37° C. for 15 minutes. Assay buffer (30 μl) containing the same concentration of compound diluted in [^3H]-Dihydroxyphenylethylamine uptake buffer (final concentration 20 nM) is added to each well and the plate is incubated at 37° C.; for 5 minutes. The reaction mixture is removed, and the cells are washed with 100 μl ice-cold assay buffer twice. Lysis buffer (50 μl) is added to the cells followed by a 5 minute incubation with gentle shaking at room temperature. The lysate is transferred to a 96 well isoplate. Optiphase supermix (100 μl) is added to each well with complete mixing. Radioactivity is counted with Microbeta Counter and reported as CPM. Nomifensine is used as a control to measure non-specific uptake and for data normalization. Percent inhibition of [^3H]-Dihydroxyphenylethylamine uptake calculations: 100×(1−(CPMtest sample−CPMnon-specific uptake)/(CPMMAX−CPMMIN)). Test compounds were screened at 10 concentrations at half-log dilutions from a top concentration of 100 μM. IC50s were determined using the log(inhibitor) vs. normalized response—Variable slope model in GraphPad Prism 10.1.0 and are summarized in Table 3.

[4] = 10 half-log dilutions from 100 μM, read-out: DAT Uptake Inhibition IC50
[5] = 10 half-log dilutions from 100 μM, read-out: SERT Uptake Inhibition IC50
[6] = 10 half-log dilutions from 100 μM, read-out: NET Uptake Inhibition IC50

T1 sequence (P31645 whole entry): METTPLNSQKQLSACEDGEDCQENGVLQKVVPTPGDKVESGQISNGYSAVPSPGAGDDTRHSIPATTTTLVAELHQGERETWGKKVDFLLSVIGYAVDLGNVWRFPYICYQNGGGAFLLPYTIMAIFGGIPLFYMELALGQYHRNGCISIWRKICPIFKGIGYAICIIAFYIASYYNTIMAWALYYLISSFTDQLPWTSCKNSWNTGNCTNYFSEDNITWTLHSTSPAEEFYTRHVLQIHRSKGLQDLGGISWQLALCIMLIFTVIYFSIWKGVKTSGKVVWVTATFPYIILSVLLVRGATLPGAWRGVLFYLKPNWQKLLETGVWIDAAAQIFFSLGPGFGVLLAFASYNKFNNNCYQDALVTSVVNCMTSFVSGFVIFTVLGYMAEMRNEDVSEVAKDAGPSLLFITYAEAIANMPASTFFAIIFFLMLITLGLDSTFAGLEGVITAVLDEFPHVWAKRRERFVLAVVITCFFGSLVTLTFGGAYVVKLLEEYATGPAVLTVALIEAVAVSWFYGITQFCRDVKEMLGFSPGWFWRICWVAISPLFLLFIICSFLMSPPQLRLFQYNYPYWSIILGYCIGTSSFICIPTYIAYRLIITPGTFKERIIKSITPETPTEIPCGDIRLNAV
T3 sequence (Q01959 whole entry): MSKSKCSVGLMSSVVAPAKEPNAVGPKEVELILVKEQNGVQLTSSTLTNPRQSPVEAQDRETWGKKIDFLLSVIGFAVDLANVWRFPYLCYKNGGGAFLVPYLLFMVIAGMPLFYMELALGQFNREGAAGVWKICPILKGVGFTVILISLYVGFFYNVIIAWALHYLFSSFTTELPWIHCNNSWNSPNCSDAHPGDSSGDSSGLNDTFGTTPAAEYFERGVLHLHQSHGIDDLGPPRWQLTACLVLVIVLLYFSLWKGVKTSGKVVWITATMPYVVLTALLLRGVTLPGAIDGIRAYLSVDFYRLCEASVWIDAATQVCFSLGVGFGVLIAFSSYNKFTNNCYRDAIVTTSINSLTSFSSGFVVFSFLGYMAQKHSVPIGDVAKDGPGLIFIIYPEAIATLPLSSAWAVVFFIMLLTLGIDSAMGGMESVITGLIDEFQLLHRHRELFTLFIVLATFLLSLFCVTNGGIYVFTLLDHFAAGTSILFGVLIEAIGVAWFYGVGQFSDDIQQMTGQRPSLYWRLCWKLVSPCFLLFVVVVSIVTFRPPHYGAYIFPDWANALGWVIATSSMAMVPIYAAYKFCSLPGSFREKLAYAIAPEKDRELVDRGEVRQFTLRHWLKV
T2 sequence (P23975 whole entry): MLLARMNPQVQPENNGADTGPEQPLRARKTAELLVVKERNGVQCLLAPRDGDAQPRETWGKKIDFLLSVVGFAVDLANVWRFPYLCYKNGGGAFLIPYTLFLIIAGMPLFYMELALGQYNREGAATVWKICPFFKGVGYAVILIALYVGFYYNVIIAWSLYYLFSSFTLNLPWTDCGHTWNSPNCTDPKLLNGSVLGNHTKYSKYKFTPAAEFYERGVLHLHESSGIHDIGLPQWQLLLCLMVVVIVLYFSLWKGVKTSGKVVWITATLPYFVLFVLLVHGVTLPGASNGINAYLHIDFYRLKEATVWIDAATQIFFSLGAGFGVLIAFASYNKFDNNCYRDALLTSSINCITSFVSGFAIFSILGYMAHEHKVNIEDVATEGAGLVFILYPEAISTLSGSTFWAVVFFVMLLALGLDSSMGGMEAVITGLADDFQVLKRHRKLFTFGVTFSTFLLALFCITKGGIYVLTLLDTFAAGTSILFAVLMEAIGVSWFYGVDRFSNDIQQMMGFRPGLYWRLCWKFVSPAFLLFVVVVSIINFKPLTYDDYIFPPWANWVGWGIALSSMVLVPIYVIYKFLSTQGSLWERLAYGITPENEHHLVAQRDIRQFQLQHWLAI

Structure (SMILES) | SERT UPTAKE INHIBITION (%) @100 uM [1] | inhibition at 10 µM [1] | inhibition at 100 µM [1] | IC50 [3, 4] | IC50 [1, 5] | IC50 [2, 6] | further results
CNC(C)Cc1ccc2c(c1)OCO2 (stereo not drawn) [18 MDMA, 3,4-methylenedioxymethamphetamine, reference compound] | 88.7% and 98.0% and 86.2% | 53.3% | 85.1% | 5.29 µM | – | – | SERT UPTAKE INHIBITION (%) @1 uM [1]: 25.0% and −1.67%; SERT UPTAKE INHIBITION (%) @10 uM ([1]; 10 uM test compound, 10 µM): 70.1%; IC50 ([1]; SERT Uptake Inhibition IC50, 10 half-log dilutions from 100 μM): 5.25 µM and 5.08 µM and 3.19 µM and 1.48 µM and 2.07 µM and 2.21 µM; IC50 ([2]; NET Uptake Inhibition IC50, 10 half-log dilutions from 100 μM): 1.4 µM and 2.37 µM and 0.93 µM and 1.34 µM and 2.27 µM and 2.89 µM; IC50 ([3]; DAT Uptake Inhibition IC50, 10 half-log dilutions from 100 μM): 3.5 µM and 5.48 µM and 7.48 µM and 10.3 µM and 13.5 µM
CNC(C)Cc1ccn2ccnc2c1 (stereo not drawn) [Compound 1] | – | – | 91.6% | – | – | – | inhibition at 1 µM [1]: 3.6%
CNC(C)Cc1ccc2ncsc2c1 (stereo not drawn) [Compound 2] | 93.94% and 91.08% | 67.9% | 88.8% | 21.8 µM | 10.3 µM | 4.7 µM | SERT UPTAKE INHIBITION (%) @1 uM [1]: 43.44% and −5.16%
CNC(C)Cc1ccn2ncnc2c1 (stereo not drawn) [Compound 3] | 69.13% | – | 78.4% | – | – | – | SERT UPTAKE INHIBITION (%) @1 uM [1]: −1.21% and −1.77%
CNC(C)Cc1ccc2scnc2c1 (stereo not drawn) [Compound 4] | 87.43% | 61.8% | 91.5% | 35.8 µM | 11.3 µM | 8.3 µM | inhibition at 1 µM [1]: 20.2%
CC(N)Cc1ccn2ccnc2c1 (stereo not drawn) [Compound 5] | – | – | 90.2% | – | – | – | inhibition at 1 µM [1]: -0.48%
CC(N)Cc1ccc2ncsc2c1 (stereo not drawn) [Compound 6] | 96.89% | – | 94.6% | > 100 µM | 7.5 µM | 1.1 µM | SERT UPTAKE INHIBITION (%) @1 uM [1]: 51.1% and 4.94%
CC(N)Cc1ccn2ncnc2c1 (stereo not drawn) [Compound 7] | 84.23% and 59.35% | – | – | – | – | – | SERT UPTAKE INHIBITION (%) @1 uM [1]: 11.89% and −1.06%
CC(N)Cc1ccc2scnc2c1 (stereo not drawn) [Compound 8] | 90.93% | 68.7% | 82.4% | 20.7 µM | 11.5 µM | > 100 µM | inhibition at 1 µM [1]: 24%
CC(N)Cc1ccc2ncoc2c1 (stereo not drawn) [Compound 9, 1-(benzo[d]oxazol-6-yl)propan-2-amine] | – | -2.39% | 87.9% | – | – | – | –
CNC(C)Cc1ccc2conc2c1 (stereo not drawn) [Compound 10, [1-(2,1-benzoxazol-6-yl)propan-2-yl](methyl)amine] | – | 48.3% | 96.8% | – | – | – | –
CC(N)Cc1ccc2conc2c1 (stereo not drawn) [Compound 11, 1-(2,1-benzoxazol-6-yl) propan-2-amine] | – | 45.5% | 96.6% | – | – | – | –
CNC(C)Cc1ccc2ncnn2c1 (stereo not drawn) [Compound 12, methyl(1-{[1,2,4]triazolo[1,5-a]pyridin-6-yl}propan-2-yl)amine] | – | 0.25% | 83.2% | – | – | – | –
CC(N)Cc1ccc2ncnn2c1 (stereo not drawn) [Compound 13] | – | 1.34% | 73.1% | – | – | – | –
C[C@H](N)Cc1ccc2ncsc2c1 [Compound 14, (S)-1-(benzo[d]thiazol-6-yl)propan-2-amine] | – | 46.6% | 98.9% | > 100 µM | 6.6 µM | 5.8 µM | –
C[C@@H](N)Cc1ccc2ncsc2c1 [Compound 15, (R)-1-(benzo[d]thiazol-6-yl)propan-2-amine] | – | 38% | 97.5% | – | – | – | –
CN[C@@H](C)Cc1ccc2ncsc2c1 [Compound 16, (S)-1-(benzo[d]thiazol-6-yl)-N-methylpropan-2-amine] | – | 57.7% | 99.1% | > 100 µM | 5.1 µM | 4.2 µM | –
CN[C@H](C)Cc1ccc2ncsc2c1 [Compound 17, (R)-1-(benzo[d]thiazol-6-yl)-N-methylpropan-2-amine] | – | 32.5% | 95.7% | – | – | – | –
